Experimental data reported in PubChem BioAssay (NCI).
Where “and” joins values, the source holds several entries; their conditions need not be identical. Equal values may be shown once.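 Cultured in 96-well plates, cells were exposed to test compound for 48 hours across five concentrations. At the GI50, growth is halved. TGI: total growth inhibition.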

How the values were obtained:
Experiment in all cases: NCI tumour cell line growth inhibition, 48 h
[1] = tested on: LOX IMVI melanoma
[2] = tested on: SW-620 colon
[3] = tested on: U251 CNS
[4] = tested on: SNB-19 CNS
[5] = tested on: HS 578T breast
[6] = tested on: HCT-116 colon
[7] = tested on: NCI-H522 lung
[8] = tested on: HL-60(TB) leukemia
[9] = tested on: SF-295 CNS
[10] = tested on: SF-539 CNS
[11] = tested on: MDA-MB-435
[12] = tested on: OVCAR-5 ovarian
[13] = tested on: 786-0 renal
[14] = tested on: M14 melanoma
[15] = tested on: HT29 colon
[16] = tested on: A549 NSCLC
[17] = tested on: CCRF-CEM leukemia
[18] = tested on: NCI/ADR-RES ovarian
[19] = tested on: HCT-15 colon
[20] = tested on: CAKI-1 renal
[21] = tested on: MCF7 breast
[22] = tested on: DU-145 prostate
[23] = tested on: SK-MEL-5 melanoma
[24] = tested on: UACC-257 melanoma
[25] = tested on: RPMI-8226 leukemia
[26] = tested on: UO-31 renal
[27] = tested on: MDA-MB-231 breast
[28] = tested on: OVCAR-4 ovarian
[29] = tested on: SK-MEL-2 melanoma
[30] = tested on: T-47D breast
[31] = tested on: KM12 colon
[32] = tested on: PC-3 prostate
[33] = tested on: MOLT-4 leukemia
[34] = tested on: NCI-H460 lung
[35] = tested on: IGROV1 ovarian
[36] = tested on: RXF 393 renal
[37] = tested on: SNB-75 CNS
[38] = tested on: ACHN renal
[39] = tested on: EKVX NSCLC
[40] = tested on: UACC-62 melanoma
[41] = tested on: SF-268 CNS
[42] = tested on: COLO 205 colon
[43] = tested on: OVCAR-8 ovarian
[44] = tested on: SN12C renal
[45] = tested on: K-562 leukemia
[46] = tested on: MALME-3M melanoma
[47] = tested on: SK-MEL-28 melanoma
[48] = tested on: BT-549 breast
[49] = tested on: SK-OV-3 ovarian
[50] = tested on: NCI-H226 lung
[51] = tested on: OVCAR-3 ovarian
[52] = tested on: HOP-92 NSCLC
[53] = tested on: HOP-62 NSCLC
[54] = tested on: NCI-H23 lung
[55] = tested on: HCC-2998 colon
[56] = tested on: SR leukemia
[57] = tested on: TK-10 renal
[58] = tested on: A498 renal

CC1(C)OB(c2ccc(N(CCOS(C)(=O)=O)CCOS(C)(=O)=O)cc2)OC1(C)C
GI50 [1]: 6.98 µM
TGI [1]: > 53.3 µM
GI50 [2]: 17.1 µM
TGI [2]: > 100 µM
GI50 [3]: 8.66 µM
TGI [3]: 34.7 µM
GI50 [4]: 31.3 µM
TGI [4]: > 100 µM
GI50 [5]: 32.3 µM
TGI [5]: > 87 µM
GI50 [6]: 10.5 µM
TGI [6]: 24.7 µM
GI50 [7]: 14.3 µM
TGI [7]: 74.5 µM
GI50 [8]: 2.85 µM
TGI [8]: 39.3 µM
GI50 [9]: 12.9 µM
TGI [9]: > 55 µM
GI50 [10]: 7.55 µM
TGI [10]: 29.9 µM
GI50 [11]: 23 µM
TGI [11]: 53.4 µM
GI50 [12]: 25.4 µM
TGI [12]: 48.3 µM
GI50 [13]: 3.41 µM
TGI [13]: 21.6 µM
GI50 [14]: 3.01 µM
TGI [14]: 13.7 µM
GI50 [15]: 30 µM
TGI [15]: > 100 µM
GI50 [16]: 15.1 µM
TGI [16]: > 85.8 µM
GI50 [17]: 1.98 µM
TGI [17]: > 39.6 µM
GI50 [18]: 15.8 µM
TGI [18]: 65.2 µM
GI50 [19]: 15.6 µM
TGI [19]: 41 µM
GI50 [20]: 1.79 µM
TGI [20]: 18.4 µM
GI50 [21]: 17.8 µM
TGI [21]: > 83.8 µM
GI50 [22]: 23.3 µM
TGI [22]: 55.7 µM
GI50 [23]: 16.2 µM
TGI [23]: 38.2 µM
GI50 [24]: 21.6 µM
TGI [24]: > 60.5 µM
GI50 [25]: 7.75 µM
TGI [25]: > 72.5 µM
GI50 [26]: 16.5 µM
TGI [26]: > 64.6 µM
GI50 [27]: > 43.5 µM
TGI [27]: > 65.2 µM
GI50 [28]: 32.9 µM
TGI [28]: > 86.6 µM
GI50 [29]: 28.6 µM
TGI [29]: > 79.1 µM
GI50 [30]: 18.1 µM
TGI [30]: > 100 µM
GI50 [31]: 26.8 µM
TGI [31]: > 85 µM
GI50 [32]: 15.6 µM
TGI [32]: > 79.7 µM
GI50 [33]: 1.68 µM
TGI [33]: > 72.7 µM
GI50 [34]: 12.6 µM
TGI [34]: > 100 µM
GI50 [35]: 4.89 µM
TGI [35]: 35.4 µM
GI50 [36]: 24.6 µM
TGI [36]: > 67.4 µM
GI50 [37]: 22.1 µM
TGI [37]: 49.3 µM
GI50 [38]: 3 µM
TGI [38]: 14.2 µM
GI50 [39]: 23.4 µM
TGI [39]: 58.7 µM
GI50 [40]: 13 µM
TGI [40]: 33 µM
GI50 [41]: 23 µM
TGI [41]: > 83.7 µM
GI50 [42]: 24.1 µM
TGI [42]: > 100 µM
GI50 [43]: 21.7 µM
TGI [43]: > 92.3 µM
GI50 [44]: 9.38 µM
TGI [44]: > 54.6 µM
GI50 [45]: 16.3 µM
TGI [45]: > 86.2 µM
GI50 [46]: 12.9 µM
TGI [46]: 46.1 µM
GI50 [47]: 34 µM
TGI [47]: > 83.7 µM
GI50 [48]: 17.6 µM
TGI [48]: 41 µM
GI50 [49]: 34.3 µM
TGI [49]: > 100 µM
GI50 [50]: 9.02 µM
TGI [50]: 33.6 µM
GI50 [51]: 18.9 µM
TGI [51]: 45.3 µM
GI50 [52]: 10.2 µM
TGI [52]: 48.6 µM
GI50 [53]: 7.92 µM
TGI [53]: 23.4 µM
GI50 [54]: 6.88 µM
TGI [54]: 30.4 µM
GI50 [55]: 15.7 µM
TGI [55]: 49 µM
GI50 [56]: 0.0234 µM
TGI [56]: 1.02 µM
GI50 [57]: 18.9 µM
TGI [57]: 56.4 µM

CC(=O)N[C@H](C)[C@@H](O)[C@@H](C)[C@@H]1OC(=O)/C=C/C=C(C)\C=C\[C@]2(C)C[C@@H](NS(C)(=O)=O)C=C[C@@H]2/C=C(C)/C=C/[C@H]1C
GI50 [1]: 0.00271 µM and 0.00743 µM
TGI [1]: 0.00873 µM and 0.0148 µM
GI50 [2]: 0.00821 µM and 0.0135 µM
TGI [2]: > 43.5 µM
GI50 [3]: 0.00368 µM and 0.00435 µM
TGI [3]: > 43.5 µM
GI50 [4]: 0.039 µM and 0.0228 µM
TGI [4]: > 43.5 µM
GI50 [5]: 0.0158 µM and 0.0164 µM
TGI [5]: > 43.5 µM
GI50 [6]: 0.00172 µM and 0.00435 µM
TGI [6]: > 43.5 µM
GI50 [7]: 0.0251 µM and 0.0451 µM
TGI [7]: > 43.5 µM
GI50 [8]: 0.00579 µM and 0.0124 µM
TGI [8]: > 43.5 µM
GI50 [9]: 0.00244 µM and 0.00435 µM
GI50 [10]: 0.00357 µM and 0.00623 µM
TGI [10]: > 43.5 µM
GI50 [11]: 0.00268 µM and 0.00435 µM
TGI [11]: > 43.5 µM
GI50 [12]: > 43.5 µM
TGI [12]: > 43.5 µM
GI50 [13]: 0.0469 µM and 0.0185 µM
TGI [13]: > 43.5 µM
GI50 [14]: 0.00309 µM
GI50 [15]: 0.00459 µM and 0.00435 µM
TGI [15]: > 43.5 µM
GI50 [16]: 0.0159 µM and 0.00435 µM
TGI [16]: > 43.5 µM
GI50 [18]: 0.235 µM and 0.127 µM
TGI [18]: > 43.5 µM
GI50 [19]: 0.0359 µM and 0.0337 µM
TGI [19]: > 43.5 µM
GI50 [21]: 0.00547 µM and 0.00591 µM
TGI [21]: > 43.5 µM
TGI [22]: > 43.5 µM
GI50 [23]: 0.00313 µM and 0.00786 µM
TGI [23]: 0.0151 µM and 0.0256 µM
GI50 [24]: 0.0227 µM and 0.00967 µM
TGI [24]: > 43.5 µM
GI50 [25]: 0.00766 µM and 0.0153 µM
TGI [25]: > 43.5 µM
GI50 [26]: 0.00495 µM and 0.00725 µM
TGI [26]: > 43.5 µM
GI50 [27]: 0.00125 µM and 0.0046 µM
GI50 [28]: 25.2 µM
TGI [28]: > 43.5 µM
GI50 [29]: 3.88 µM and 24.1 µM
TGI [29]: > 43.5 µM
GI50 [30]: 0.00343 µM and 0.00506 µM
TGI [30]: > 43.5 µM
GI50 [31]: 0.125 µM and 0.0277 µM
TGI [31]: > 43.5 µM
GI50 [32]: 0.00714 µM and 0.0129 µM
TGI [32]: > 43.5 µM
GI50 [33]: > 43.5 µM
TGI [33]: > 43.5 µM
GI50 [34]: 0.00812 µM and 0.0174 µM
TGI [34]: > 43.5 µM
GI50 [35]: 0.0185 µM and 0.014 µM
TGI [35]: > 43.5 µM
GI50 [36]: 0.00352 µM and 0.00846 µM
TGI [36]: 31.1 µM
GI50 [58]: 0.0068 µM and 0.0121 µM
GI50 [37]: 0.00177 µM and 0.00888 µM
GI50 [38]: 0.0125 µM
TGI [38]: > 43.5 µM
TGI [39]: > 43.5 µM
GI50 [40]: 0.00725 µM and 0.0278 µM
TGI [40]: > 43.5 µM
GI50 [41]: 0.357 µM and 0.0531 µM
TGI [41]: > 43.5 µM
GI50 [42]: 0.00692 µM and 0.0199 µM
TGI [42]: > 43.5 µM
GI50 [43]: 0.017 µM
TGI [43]: > 43.5 µM
GI50 [44]: 0.00723 µM and 0.0129 µM
TGI [44]: > 43.5 µM
GI50 [45]: 0.00684 µM and 0.0218 µM
TGI [45]: > 43.5 µM
GI50 [46]: 0.0868 µM and 0.0628 µM
TGI [46]: > 43.5 µM
GI50 [47]: 0.008 µM and 0.0222 µM
TGI [47]: > 43.5 µM
GI50 [48]: 0.00898 µM and 0.0242 µM
TGI [48]: > 43.5 µM
GI50 [49]: 0.00446 µM and 0.00599 µM
TGI [49]: 0.0397 µM
GI50 [50]: 0.0156 µM and 0.00593 µM
TGI [50]: > 43.5 µM
TGI [51]: > 43.5 µM
GI50 [52]: 0.00126 µM and 0.00435 µM
TGI [52]: 0.0297 µM and 0.0256 µM
GI50 [53]: 0.0103 µM and 0.0205 µM
TGI [53]: > 43.5 µM
GI50 [54]: 0.0493 µM
TGI [54]: > 43.5 µM
TGI [55]: > 43.5 µM
GI50 [56]: 0.00606 µM and 0.00719 µM
TGI [56]: > 43.5 µM
GI50 [57]: 0.045 µM and 0.276 µM
TGI [57]: > 43.5 µM
